Results taken from PubChem BioAssay (NCI).
Several values for one entry are separate records, joined by “and”; a condition that tells them apart may be missing. Equal entries are not always repeated.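 Interpolation was linear, between the two tested concentrations surrounding the appropriate level; five concentrations were tested over 48 hours in 96-well plates. Abbreviation: GI50, concentration required for 50% inhibition of growth. TGI marks complete inhibition of growth.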

Assays:
Experiment in all cases: NCI anticancer screen, dose series, 48 h
[1] = test system: BT-549 breast
[2] = test system: DU-145 prostate
[3] = test system: HS 578T breast
[4] = test system: HT29 colon
[5] = test system: MCF7 breast
[6] = test system: MDA-MB-231 breast
[7] = test system: OVCAR-3 ovarian
[8] = test system: T-47D breast

SMILES	GI50 [1]	TGI [1]	GI50 [2]	TGI [2]	GI50 [3]	TGI [3]	GI50 [4]	TGI [4]	GI50 [5]	TGI [5]	GI50 [6]	TGI [6]	GI50 [7]	TGI [7]	GI50 [8]	TGI [8]
CCN1Cc2c(ccc(F)c2C#N)O[C@@H](C)CNC(=O)c2c(N)nn3ccc1nc23	5.98 µM	18.5 µM	2.09 µM	15.7 µM	0.652 µM	4.71 µM	0.98 µM	46.7 µM	3.23 µM	31.1 µM	1.32 µM	4.21 µM	3.37 µM	18.1 µM	2.78 µM	56.3 µM
COc1ccc(C(=O)/C=C/c2ccc3c(c2)OCO3)c(OCc2ccccc2)c1		> 100 µM		> 100 µM		> 100 µM		> 100 µM		> 100 µM		> 100 µM		> 100 µM		> 100 µM
COc1ccc(S(=O)(=O)Nc2cc(/C=C\c3cc(OC)c(OC)c(OC)c3)ccc2OC)cc1	0.197 µM	> 100 µM	0.341 µM	> 100 µM	0.226 µM	> 100 µM	0.0809 µM	8.22 µM	0.0426 µM	> 100 µM	0.399 µM	> 100 µM	0.053 µM	> 100 µM		
COc1cccc2c1C(=O)c1c(O)c3c(c(O)c1C2=O)C[C@@](O)(C(=O)CO)C[C@@H]3O[C@H]1C[C@H](N)[C@@H](O)[C@H](C)O1	0.128 µM	0.474 µM	0.159 µM	5.8 µM	0.257 µM	3.3 µM		7.75 µM	0.0247 µM	14 µM	0.595 µM	12.1 µM	0.613 µM	13.4 µM	0.128 µM	3.19 µM
CC(C)c1c(O)ccc2c1CCC1C(C)(C)CCCC21C (stereo not given)		32.8 µM		28.3 µM		57.2 µM		32.1 µM		35.3 µM		36.5 µM		34.1 µM		5.75 µM
CCCCCCCCCCC(C(O)c1ccccc1)N1CCCCC1 (stereo not given)	4.57 µM	16.5 µM	2.07 µM	6.72 µM	2.02 µM	4.52 µM	1.72 µM	4.41 µM	1.87 µM	3.43 µM	1.76 µM	3.69 µM	1.11 µM	2.57 µM	1.91 µM	4.35 µM
C=C(C)[C@@H]1CC[C@]2(C)[C@H](CC=C3[C@@H]4[C@@H](C)[C@H](C)CC[C@]4(C(N)=O)CC[C@]32C)[C@@]1(C)CCC#N	4.4 µM	18 µM	4.41 µM	26.4 µM	11.6 µM	88.8 µM	3.34 µM	21.1 µM	3.59 µM	> 100 µM	8.75 µM	42.8 µM	3.45 µM	10.7 µM	2.85 µM	> 100 µM
COc1cc(/C=N/NC(=O)c2cnn3c2NC(c2ccccc2)C3)ccc1Oc1ccccc1 (stereo not given)	0.864 µM	3.16 µM	1.42 µM	4.84 µM	1.65 µM	5.22 µM	0.432 µM	1.76 µM	0.436 µM	10.2 µM	1.66 µM	5.03 µM	0.346 µM	1.31 µM	0.998 µM	16.9 µM
CCN1C(=O)N(c2ccccc2)C2NC(=S)N(/N=C/C=C/c3ccccc3)C21 (stereo not given)	0.643 µM	> 24.7 µM	0.444 µM	> 100 µM	0.339 µM	> 100 µM	0.295 µM	> 100 µM	0.193 µM	> 100 µM	0.715 µM	> 100 µM	0.263 µM		0.405 µM	> 100 µM
COc1ccccc1N1CCN(CCc2c[nH]c3cc4c(cc23)OCO4)CC1	23.3 µM	> 100 µM	28.9 µM	> 100 µM	20.1 µM	70.9 µM	3.39 µM	> 100 µM	33.3 µM	> 100 µM	21.4 µM	77.7 µM	30.2 µM	> 100 µM	19.8 µM	77.3 µM
CC(=O)OCC(=O)[C@@]12OC(C)(C)O[C@@H]1C[C@H]1[C@@H]3CC=C4C[C@@H](O)CC[C@]4(C)[C@H]3CC[C@@]12C		96.4 µM		> 100 µM		63.4 µM		> 100 µM		> 100 µM		> 100 µM		> 100 µM		> 100 µM
CN1C(=O)C(CC(=O)O)NC1=S (stereo not given)		> 100 µM		> 100 µM		> 100 µM		> 100 µM		> 100 µM		> 100 µM		> 100 µM		> 100 µM
CC(NCCC(=O)N(CCC(=O)N(CCC(=O)N(CCC(=O)N(CCC(=O)N(CCC(=O)N(CCC(=O)N(CCC(=O)N(CCC(=O)N(CCC(=O)O)[C@H](C)c1ccccc1)[C@H](C)c1ccccc1)[C@H](C)c1ccccc1)[C@H](C)c1ccccc1)[C@H](C)c1ccccc1)[C@H](C)c1ccccc1)[C@H](C)c1ccccc1)[C@H](C)c1ccccc1)[C@H](C)c1ccccc1)c1ccccc1 (stereo not given in full)			2.34 µM	12.3 µM	2.54 µM	> 57.3 µM	1.6 µM	5.37 µM	2.03 µM	> 26.1 µM	1.44 µM	4.39 µM	2.04 µM	19.1 µM	3.42 µM	> 75 µM
O=C(c1ccccc1)C(Br)C(Br)c1cccc([N+](=O)[O-])c1 (stereo not given)	2 µM	3.65 µM	2.48 µM	6.33 µM			3.45 µM	> 100 µM	1.28 µM	3.63 µM	1.96 µM	3.79 µM	1.61 µM	2.96 µM	2.13 µM	5.65 µM
CCC[CH2][Sn]([CH2]CCC)([CH2]CCC)[O]C(=O)c1ccc(Cl)cc1Cl	0.119 µM	0.251 µM	0.128 µM	0.257 µM	0.173 µM	0.538 µM	0.125 µM	0.283 µM	0.137 µM	0.278 µM	0.129 µM	0.326 µM	0.13 µM	0.259 µM	0.138 µM	0.289 µM
COC(=O)C1=C(C(=O)OC)SC(=C(Cl)C(=S)Nc2ccccc2O)S1	2.34 µM	35.5 µM	15.7 µM	> 50 µM	31.6 µM	> 50 µM	30.2 µM	> 50 µM	8.57 µM	25.7 µM	10.6 µM	25.9 µM	7.41 µM	22.8 µM	17 µM	> 50 µM

SMILES	GI50 [1]	TGI [1]	GI50 [2]	TGI [2]	GI50 [3]	TGI [3]	GI50 [4]	TGI [4]	GI50 [5]	TGI [5]	GI50 [6]	TGI [6]	GI50 [7]	TGI [7]	GI50 [8]	TGI [8]
CN(C)CC1C(=O)O[C@H]2[C@H]1CC/C(COC(=O)c1cc3ccccc3[nH]1)=C\CC[C@@]1(C)O[C@@H]21 (stereo not given in full)	1.66 µM	4.48 µM	2.01 µM	6.17 µM	2.93 µM	13.6 µM	0.671 µM	2.57 µM	1.01 µM	4.55 µM	2 µM	4.63 µM	0.672 µM	1.76 µM	2.19 µM	5.54 µM
CC(C)COCC(CN(Cc1ccccc1)c1ccccc1)N1CCCC1 (stereo not given)	5.75 µM	19 µM	3.76 µM	13.6 µM	3.6 µM	18.2 µM	1.46 µM	4.17 µM	2.06 µM	4.78 µM	1.84 µM	5.22 µM	3.15 µM	12.1 µM	1.74 µM	6.49 µM
COc1cccc(OCCCN)c1-c1cc(Nc2cnc(C#N)cn2)n[nH]1	0.0797 µM and 0.0856 µM	8.2 µM	0.00769 µM and 0.0131 µM	15.4 µM			0.0289 µM and 0.0238 µM	1.28 µM	0.00304 µM	18.2 µM	0.933 µM	11.9 µM	0.00761 µM and < 0.0155 µM	11.4 µM	7.91 µM	24 µM
O=C1C2C(c3ccccc3)NC(c3ccccc3)C1C(c1ccccc1)NC2c1ccccc1 (stereo not given)		> 100 µM		> 100 µM		> 100 µM		> 100 µM		> 100 µM		> 100 µM		> 100 µM		> 100 µM
Cc1cc2[nH]c(=O)c3c4ccccc4cn3c2cc1C	19.6 µM	40.9 µM	13.9 µM	30.1 µM	25 µM	59.9 µM	6.09 µM	> 100 µM	11.8 µM	> 100 µM	8.34 µM	23.7 µM	14 µM	28.5 µM	15.4 µM	50 µM
CNCCNc1c2c(c(NCCNC)c3[nH]ccc13)C(=O)c1ccccc1C2=O	4 µM	8.21 µM	0.526 µM	1.31 µM	0.565 µM	1.65 µM	1.35 µM	5.23 µM	0.154 µM	1.19 µM	0.1 µM	0.33 µM	0.174 µM	0.887 µM	11.4 µM	> 27 µM
C=C1C(=O)O[C@H]2[C@H]1CCC(/C=N/c1ncc(Br)cc1N)=C\CC[C@@]1(C)O[C@@H]21	1.82 µM	6.49 µM	1.25 µM	3.22 µM	5.65 µM	40.1 µM	1.93 µM	5.52 µM			1.38 µM	3.46 µM	1.05 µM	2.29 µM	1.55 µM	4.9 µM
COc1cc(Cl)cc(-c2nn(-c3cccc(NC(=O)Nc4cc(C(F)(F)F)cc(C(F)(F)F)c4)c3)cc2-c2ccncc2)c1	2.34 µM	6.78 µM	0.53 µM	12.4 µM	1.89 µM	13.6 µM	0.443 µM	2.38 µM	0.439 µM	9.3 µM	0.726 µM	2.26 µM	0.364 µM	2.04 µM	0.476 µM	6.27 µM
COc1ccc(NC(=O)COCCOCCNC[C@@H]2C(=O)O[C@H]3[C@H]2CC/C(COC(=O)OC/C2=C/CC[C@@]4(C)O[C@H]4[C@H]4OC(=O)[C@@H](CN(C)C)[C@@H]4CC2)=C\CC[C@@]2(C)O[C@@H]32)c(O)c1C(N)=O	6.19 µM	12.9 µM	7.21 µM	13.7 µM	14.7 µM	> 50 µM	1.71 µM	5.77 µM	1.63 µM	9.01 µM	5.03 µM	11.3 µM	1.47 µM	5.26 µM	1.71 µM	10.4 µM
FC(F)(F)c1ccc(C#Cc2ccccc2C#Cc2ccccc2)cc1	> 100 µM	> 100 µM	48 µM	> 100 µM			42.6 µM	> 100 µM	22.5 µM	89.8 µM	26.5 µM	62.7 µM	29.5 µM	91.9 µM	26.2 µM	60.1 µM
Nc1c([N+](=O)[O-])cc2c3c(cccc13)CC2		> 100 µM		> 100 µM		> 100 µM		> 100 µM				> 100 µM		> 100 µM		> 100 µM
O=Cc1ccccc1B(O)O		95.9 µM				49.3 µM		> 100 µM		> 100 µM		> 100 µM		> 100 µM		62.4 µM
CC[C@@]1(OC(=O)CN)C(=O)OCc2c1cc1n(c2=O)Cc2cc3c(N)cccc3nc2-1	0.0372 µM	1.63 µM			> 100 µM	> 100 µM	0.0346 µM	> 100 µM	< 0.01 µM	> 100 µM	1.43 µM	> 21.5 µM	0.0749 µM	3.77 µM	< 0.01 µM	> 100 µM
S=c1ssc(Oc2ccccc2)c1Cl	12.7 µM	31.7 µM	14.5 µM	28.9 µM			1.37 µM	> 100 µM			14.2 µM	29.6 µM	7.74 µM	20.4 µM	21.5 µM	43 µM
COc1ccc(/C(=N\O)c2cc(C)c(OC)c(C)c2)cc1O	0.0261 µM	> 100 µM	0.0349 µM	> 100 µM	0.0198 µM	> 100 µM	0.0446 µM	11.8 µM	< 0.01 µM	> 100 µM	0.0438 µM	> 100 µM	< 0.01 µM	> 100 µM		
COc1cc(-n2cc(-c3ccc(Cl)cc3)nc2SCc2cccc(C#N)c2)cc(OC)c1OC			48.1 µM	> 100 µM	34.2 µM	> 100 µM	54.1 µM	> 100 µM	51.3 µM	> 100 µM	73.5 µM	> 100 µM	50.3 µM	> 100 µM	21.4 µM	> 100 µM
